In the supplement of paper PMC10307832:

Tests used:
Experiment in all cases: relative viability (nuclei count vs DMSO), 5 days (fraction); higher = more cells survive
[1] = tested on: NCI-H1755
Procedure, shortened: (§1)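 Relative viability was taken as the ratio of nuclei in treated wells to nuclei in vehicle wells. Lung cancer cell lines in 1536-well plates received compounds by pin tool one day after seeding, either one drug alone or a fixed anchor-drug dose plus five library-drug doses (not always all listed) in √10 steps. Nuclei were counted on 4× images after 5 days of treatment, and values are medians of duplicate plates.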

[2] = tested on: LC-2-ad
Procedure, shortened: as §1

[3] = tested on: NCI-H2023
Procedure, shortened: as §1

[4] = tested on: NCI-H1395
Procedure, shortened: as §1

[5] = tested on: NCI-H650
Procedure, shortened: as §1

[6] = tested on: NCI-H3122
Procedure, shortened: as §1

[7] = tested on: BEN
Procedure, shortened: as §1

[8] = tested on: NCI-H1563
Procedure, shortened: as §1

[9] = tested on: NCI-H2170
Procedure, shortened: as §1

[10] = tested on: HCC-15
Procedure, shortened: as §1

[11] = tested on: SW 900
Procedure, shortened: as §1

[12] = tested on: SW 1573
Procedure, shortened: as §1

[13] = tested on: NCI-H1915
Procedure, shortened: as §1

[14] = tested on: EMC-BAC-2
Procedure, shortened: as §1

[15] = tested on: LU99A
Procedure, shortened: as §1

[16] = tested on: NCI-H1734
Procedure, shortened: as §1

[17] = tested on: NCI-H358
Procedure, shortened: as §1

[18] = tested on: HCC-44
Procedure, shortened: as §1

[19] = tested on: NCI-H2126
Procedure, shortened: as §1

[20] = tested on: NCI-H1437
Procedure, shortened: as §1

[21] = tested on: HOP-62
Procedure, shortened: as §1

Q: For `Cc1csc(=NC2CCCCC2)n1/N=C/c1ccc(O)c(O)c1O` [MIM1] + Nc1nc2[nH]cc(CCc3ccc(C(=O)N[C@@H](CCC(=O)O)C(=O)O)cc3)c2c(=O)[nH]1 [Pemetrexed] (partner 0.2 µM), which relative viability ([1]; first compound 0.2 µM) is on record?
A: 0.377

Q: What about the relative viability ([1]; first compound 0.6325 µM) of the same compound?
A: 0.419

Q: What about the relative viability ([1]; first compound 2 µM) of the same compound?
A: 0.41

Q: What about the relative viability ([1]; first compound 6.325 µM) of the same compound?
A: 0.41

Q: What about the relative viability ([1]; first compound 20 µM) of the same compound?
A: 0.269

Q: And the relative viability ([2]; first compound 0.2 µM)?
A: 0.293

Q: And the relative viability ([2]; first compound 0.6325 µM)?
A: 0.292

Q: And the relative viability ([2]; first compound 2 µM)?
A: 0.287

Q: What about the relative viability ([2]; first compound 6.325 µM) of the same compound?
A: 0.268

Q: And the relative viability ([2]; first compound 20 µM)?
A: 0.232

Q: What about the relative viability ([3]; first compound 0.2 µM) of the same compound?
A: 0.235

Q: And the relative viability ([3]; first compound 0.6325 µM)?
A: 0.337

Q: What about the relative viability ([3]; first compound 2 µM) of the same compound?
A: 0.219

Q: What about the relative viability ([3]; first compound 6.325 µM) of the same compound?
A: 0.098

Q: What about the relative viability ([3]; first compound 20 µM) of the same compound?
A: 0.0763

Q: What about the relative viability ([4]; first compound 0.2 µM) of the same compound?
A: 0.848

Q: What about the relative viability ([4]; first compound 0.6325 µM) of the same compound?
A: 0.743

Q: What about the relative viability ([4]; first compound 2 µM) of the same compound?
A: 0.8

Q: What about the relative viability ([4]; first compound 6.325 µM) of the same compound?
A: 0.697

Q: What about the relative viability ([4]; first compound 20 µM) of the same compound?
A: 0.341

Q: What about the relative viability ([5]; first compound 0.2 µM) of the same compound?
A: 1.07

Q: And the relative viability ([5]; first compound 0.6325 µM)?
A: 1

Q: What about the relative viability ([5]; first compound 2 µM) of the same compound?
A: 0.934

Q: What about the relative viability ([5]; first compound 6.325 µM) of the same compound?
A: 0.89

Q: And the relative viability ([5]; first compound 20 µM)?
A: 0.282

Q: And the relative viability ([6]; first compound 0.2 µM)?
A: 0.195

Q: What about the relative viability ([6]; first compound 0.6325 µM) of the same compound?
A: 0.194

Q: What about the relative viability ([6]; first compound 2 µM) of the same compound?
A: 0.219

Q: What about the relative viability ([6]; first compound 6.325 µM) of the same compound?
A: 0.148

Q: And the relative viability ([6]; first compound 20 µM)?
A: 0.245

Q: What about the relative viability ([7]; first compound 0.2 µM) of the same compound?
A: 0.792

Q: What about the relative viability ([7]; first compound 0.6325 µM) of the same compound?
A: 0.751

Q: And the relative viability ([7]; first compound 2 µM)?
A: 0.705

Q: And the relative viability ([7]; first compound 6.325 µM)?
A: 0.709

Q: And the relative viability ([7]; first compound 20 µM)?
A: 0.34

Q: And the relative viability ([8]; first compound 0.2 µM)?
A: 0.883

Q: What about the relative viability ([8]; first compound 0.6325 µM) of the same compound?
A: 0.905

Q: And the relative viability ([8]; first compound 2 µM)?
A: 0.651

Q: What about the relative viability ([8]; first compound 6.325 µM) of the same compound?
A: 0.786

Q: And the relative viability ([8]; first compound 20 µM)?
A: 0.481

Q: And the relative viability ([9]; first compound 0.2 µM)?
A: 0.265

Q: And the relative viability ([9]; first compound 0.6325 µM)?
A: 0.252

Q: And the relative viability ([9]; first compound 2 µM)?
A: 0.247

Q: And the relative viability ([9]; first compound 6.325 µM)?
A: 0.254

Q: And the relative viability ([9]; first compound 20 µM)?
A: 0.215

Q: And the relative viability ([10]; first compound 0.2 µM)?
A: 0.217

Q: And the relative viability ([10]; first compound 0.6325 µM)?
A: 0.225

Q: What about the relative viability ([10]; first compound 2 µM) of the same compound?
A: 0.225

Q: What about the relative viability ([10]; first compound 6.325 µM) of the same compound?
A: 0.239

Q: What about the relative viability ([10]; first compound 20 µM) of the same compound?
A: 0.162

Q: And the relative viability ([11]; first compound 0.2 µM)?
A: 0.504

Q: And the relative viability ([11]; first compound 0.6325 µM)?
A: 0.465

Q: And the relative viability ([11]; first compound 2 µM)?
A: 0.499

Q: What about the relative viability ([11]; first compound 6.325 µM) of the same compound?
A: 0.349

Q: And the relative viability ([11]; first compound 20 µM)?
A: 0.178

Q: What about the relative viability ([12]; first compound 0.2 µM) of the same compound?
A: 0.851

Q: And the relative viability ([12]; first compound 0.6325 µM)?
A: 0.93

Q: And the relative viability ([12]; first compound 2 µM)?
A: 0.877

Q: And the relative viability ([12]; first compound 6.325 µM)?
A: 0.791

Q: What about the relative viability ([12]; first compound 20 µM) of the same compound?
A: 0.18

Q: What about the relative viability ([13]; first compound 0.2 µM) of the same compound?
A: 0.501

Q: What about the relative viability ([13]; first compound 0.6325 µM) of the same compound?
A: 0.42

Q: What about the relative viability ([13]; first compound 2 µM) of the same compound?
A: 0.487

Q: What about the relative viability ([13]; first compound 6.325 µM) of the same compound?
A: 0.329

Q: What about the relative viability ([13]; first compound 20 µM) of the same compound?
A: 0.335

Q: What about the relative viability ([14]; first compound 0.2 µM) of the same compound?
A: 0.421

Q: What about the relative viability ([14]; first compound 0.6325 µM) of the same compound?
A: 0.436

Q: What about the relative viability ([14]; first compound 2 µM) of the same compound?
A: 0.432

Q: What about the relative viability ([14]; first compound 6.325 µM) of the same compound?
A: 0.448

Q: What about the relative viability ([14]; first compound 20 µM) of the same compound?
A: 0.354

Q: And the relative viability ([15]; first compound 0.2 µM)?
A: 0.178

Q: What about the relative viability ([15]; first compound 0.6325 µM) of the same compound?
A: 0.193

Q: What about the relative viability ([15]; first compound 2 µM) of the same compound?
A: 0.175

Q: And the relative viability ([15]; first compound 6.325 µM)?
A: 0.17

Q: What about the relative viability ([15]; first compound 20 µM) of the same compound?
A: 0.16

Q: What about the relative viability ([16]; first compound 0.2 µM) of the same compound?
A: 0.424

Q: And the relative viability ([16]; first compound 0.6325 µM)?
A: 0.448

Q: What about the relative viability ([16]; first compound 2 µM) of the same compound?
A: 0.478

Q: And the relative viability ([16]; first compound 6.325 µM)?
A: 0.412

Q: What about the relative viability ([16]; first compound 20 µM) of the same compound?
A: 0.179

Q: What about the relative viability ([17]; first compound 0.2 µM) of the same compound?
A: 0.181

Q: What about the relative viability ([17]; first compound 0.6325 µM) of the same compound?
A: 0.17

Q: And the relative viability ([17]; first compound 2 µM)?
A: 0.182

Q: And the relative viability ([17]; first compound 6.325 µM)?
A: 0.152

Q: What about the relative viability ([17]; first compound 20 µM) of the same compound?
A: 0.144

Q: What about the relative viability ([18]; first compound 0.2 µM) of the same compound?
A: 0.689

Q: And the relative viability ([18]; first compound 0.6325 µM)?
A: 0.566

Q: What about the relative viability ([18]; first compound 2 µM) of the same compound?
A: 0.601

Q: And the relative viability ([18]; first compound 6.325 µM)?
A: 0.468

Q: And the relative viability ([18]; first compound 20 µM)?
A: 0.401

Q: What about the relative viability ([19]; first compound 0.2 µM) of the same compound?
A: 0.643

Q: And the relative viability ([19]; first compound 0.6325 µM)?
A: 0.67

Q: What about the relative viability ([19]; first compound 2 µM) of the same compound?
A: 0.675

Q: And the relative viability ([19]; first compound 6.325 µM)?
A: 0.563

Q: What about the relative viability ([19]; first compound 20 µM) of the same compound?
A: 0.399

Q: And the relative viability ([20]; first compound 0.2 µM)?
A: 0.29

Q: What about the relative viability ([20]; first compound 0.6325 µM) of the same compound?
A: 0.317

Q: And the relative viability ([20]; first compound 2 µM)?
A: 0.348

Q: And the relative viability ([20]; first compound 6.325 µM)?
A: 0.235

Q: And the relative viability ([20]; first compound 20 µM)?
A: 0.154

Q: What about the relative viability ([21]; first compound 0.2 µM) of the same compound?
A: 0.362

Q: What about the relative viability ([21]; first compound 0.6325 µM) of the same compound?
A: 0.34

Q: What about the relative viability ([21]; first compound 2 µM) of the same compound?
A: 0.385

Q: And the relative viability ([21]; first compound 6.325 µM)?
A: 0.328

Q: What about the relative viability ([21]; first compound 20 µM) of the same compound?
A: 0.127
